Active and inactive are the calls of the source. No cut-off for these calls is given here.
Assays:
[1] = biological target: T1, Bromodomain-containing protein 4 (Homo sapiens, UniProt O60885); assay: Binding affinity to recombinant human N-terminal His-tagged BRD4 BD2 (349 to 460 residues) expressed in Escherichia coli measured after 30 mins by AlphaScreen assay
[2] = biological target: T1, Bromodomain-containing protein 4; assay: Binding affinity to recombinant human N-terminal His-tagged BRD4 BD1 (44 to 170 residues) expressed in Escherichia coli using H4K5AcK8Ac as substrate measured after 30 mins by AlphaScreen assay
MV4-11 [3] = assay: Antiproliferative activity against human MV4-11 cells assessed as reduction in cell viability measured after 48 hrs by CellTiter-Glo assay; type: functional, cell-based; settings: MV4-11, 48 h
MOLM-13 = assay: Antiproliferative activity against human MOLM13 cells assessed as reduction in cell viability measured after 48 hrs by CellTiter-Glo assay; type: functional, cell-based; settings: MOLM-13, 48 h
[4] = biological target: T2, Protein cereblon/Bromodomain-containing protein 4/Cullin-4A (Homo sapiens) (UniProt O60885+Q96SW2+Q13619); assay: Protac activity at cereblon/cullin4A/BRD4 in human MV4-11 cells assessed as induction of BRD4 degradation at 100 nM measured after 1 to 4 hrs by Western blot analysis; type: cell-based
[5] = biological target: T2, Protein cereblon/Bromodomain-containing protein 4/Cullin-4A (Homo sapiens); assay: Protac activity at cereblon/cullin4A/BRD4 in human MV4-11 cells assessed as induction of BRD4 degradation at 500 nM measured after 18 hrs by Western blot analysis relative to control; type: cell-based
[6] = biological target: T2, Protein cereblon/Bromodomain-containing protein 4/Cullin-4A (Homo sapiens); assay: Protac activity at cereblon/cullin4A/BRD4 in human MV4-11 cells assessed as induction of BRD4 degradation at 100 nM measured after >= 8 hrs by Western blot analysis; type: cell-based
[7] = biological target: T2, Protein cereblon/Bromodomain-containing protein 4/Cullin-4A (Homo sapiens); assay: Protac activity at cereblon/cullin4A/BRD4 in human MV4-11 cells assessed as downregulation of c-Myc at 50 nM measured after 18 hrs by Western blot analysis; type: cell-based
[8] = biological target: T1, Bromodomain-containing protein 4; assay: Selectivity index, ratio of IC50 for BRD4 BD2 (unknown origin) to IC50 for BRD4 BD1 (unknown origin)
MV4-11 [9] = assay: Induction of apoptosis in human MV4-11 cells at 10 uM measured after 24 hrs by Annexin V-FITC/propidium iodide staining based FACScan flow cytometry relative to control; type: functional

In the case of `COC(=O)CCc1cc2c3c(ccc(NS(=O)(=O)c4ccccc4OC)c3c1)N(C)C2=O`, the IC50 [1] is reported as 3690 nM and the IC50 [2] is reported as 365 nM.

`COc1ccccc1S(=O)(=O)Nc1ccc2c3c(cc(CCC(=O)NCCCCCCNc4cccc5c4C(=O)N(C4CCC(=O)NC4=O)C5=O)cc13)C(=O)N2C` (centres undefined) showed an IC50 (MV4-11 [3]) of 3430 nM and an IC50 (MOLM-13) greater than 10000 nM.

Work on `COc1ccccc1S(=O)(=O)Nc1ccc2c3c(cc(CCC(=O)NCCCCCNc4cccc5c4C(=O)N(C4CCC(=O)NC4=O)C5=O)cc13)C(=O)N2C` (centres undefined) yielded an IC50 (MV4-11 [3]) of 32.2 nM and an IC50 (MOLM-13) of 177 nM.

In the case of `COc1ccccc1S(=O)(=O)Nc1ccc2c3c(cc(CCC(=O)NCCCNc4cccc5c4C(=O)N(C4CCC(=O)NC4=O)C5=O)cc13)C(=O)N2C` (centres undefined), the Activity [4] is reported as “Active”, the IC50 (MV4-11 [3]) is reported as 25.2 nM and the Activity [5] is reported as 100%. The IC50 (MOLM-13) was 180 nM, the Activity [6] was “Active” and the Activity [7] was “Active”.

With `COc1ccccc1S(=O)(=O)Nc1ccc2c3c(cc(CCC(=O)NCCNc4cccc5c4C(=O)N(C4CCC(=O)NC4=O)C5=O)cc13)C(=O)N2C` (centres undefined) the IC50 (MV4-11 [3]) was 1650 nM and the IC50 (MOLM-13) was greater than 10000 nM.

`Cc1sc2c(c1C)C(c1ccc(Cl)cc1)=N[C@@H](CC(=O)OC(C)(C)C)c1nnc(C)n1-2` showed an IC50 (MV4-11 [3]) of 80.8 nM.

`COc1ccccc1S(=O)(=O)Nc1ccc2c3c(cccc13)C(=O)N2C` showed a Ratio IC50 [8] of 50, an IC50 (MV4-11 [3]) of 370 nM and an Activity (MV4-11 [9]) of 86.07%. It also gave an IC50 (MOLM-13) of 3370 nM.
